According to publication PMC4207412, “Secondary Structural Preferences of Some Antibacterial Cyclooctapeptides in the Presence of Calcium(II)” (International Journal of Medicinal Chemistry, 2012):
Read-outs that look alike come from different tables or passages of the source. Square brackets hold non-standard residues; d marks the D form. Peptide text beside a SMILES is read from it.

Legend:
[1] = test system: Escherichia coli ATCC 25922; type: cell-based
Experimental: (§1) Microbiological studies were performed on Escherichia coli ATCC 25922 and Staphylococcus aureus ATCC 10566 (American Type Culture Collection (ATCC), Rockville, MD, USA) using carefully standardized conditions. A suspension of the bacteria (in exponential phase of growth) was prepared and then diluted to yield a final concentration of approximately 1 × 10^5 colony forming units (cfu) per milliliter. Stock peptides were dissolved in 9% sucrose solutions containing 5% dimethyl sulfoxide. The 96-well microtiter tray containing the bacterial cultures and peptides was incubated for 18 hrs at 35°C. […] All tests were conducted in triplicate and the reported MIC values were derived from at least three independent experiments.
(§2) COP 4–9 were then designed to include a glutamyl residue to reduce the overall cationic charges on these amphipathic cyclopeptides. […] A lysine residue in COP 4 was sequentially substituted with histidine in COP 5, cysteine in COP 6, and leucine in COP 7. […] As the net positive charges of the cyclopeptide decreased, antimicrobial activity decreased by fourfold (see COP 6). […] The decreasing antimicrobial activities of these cyclopeptides could be attributed to their diminishing cationic character and an inadequate balance of amphipathic residues in their sequences. These structurally similar cyclopeptides (COP 1–9) were subsequently evaluated for calcium(II) binding affinity by ITC and assessed for conformational changes upon calcium(II) binding by circular dichroism (CD).

[2] = test system: Staphylococcus aureus ATCC 10566; type: cell-based
Experimental: as §1, §2

[3] = Isothermal titration calorimetry of Ca2+ binding in 10% acetonitrile in water; conditions: ITC, 30°C, no DPC, peptide 0.15 or 0.30 mM, Ca(ClO4)2 9 to 15 mM in syringe, one-site model, mean of three experiments ± standard error mean
Experimental: (§3) Microcalorimetric titrations of peptides with metal ions were conducted by isothermal titration microcalorimetry (ITC) using a Microcal VP-ITC Instrument (Northampton, MA, USA). Experiments were carried out at 30°C in 10% acetonitrile in water. The peptide concentration was 0.15 or 0.30 mM (1.34 mL sample cell), and the metal ion [Ca(ClO4)2] concentration was varied from 9 to 15 mM in the syringe. Automated titrations were conducted until saturation, up to a Ca^2+/peptide mole ratio of about 12 : 1. Heats of dilution and mixing for each experiment were measured by titrating calcium(II) solution into 10% acetonitrile solution. The effective heat of each peptide and calcium(II) interaction was corrected for dilution and mixing effects by subtracting the enthalpy change derived from the titration of calcium(II) solution into the 10% acetonitrile solution without the peptide. In a similar way, ITC experiments were carried out at 30°C in 10% aqueous acetonitrile containing 10 mM DPC. These heats of bimolecular interactions were obtained by integrating the peak following each injection of calcium(II). The binding isotherms were derived from the raw ITC data following correction for dilution and mixing effects. These isotherms were fitted using the one-site model by a nonlinear least square analysis with Microcal Origin 7.0 software (Microcal Software, Inc., Northampton, MA, USA) to determine the molar enthalpy change for binding, ΔH, and the corresponding binding constant, K b. From these values, the thermodynamic characterization of the interaction at 30°C was determined from the fundamental equations of thermodynamics, ΔG = −RT ln K b and ΔS = (ΔH − ΔG)/T.

[4] = Isothermal titration calorimetry of Ca2+ binding in micellar DPC (10 mM); conditions: ITC, 30°C, 10% aqueous acetonitrile containing 10 mM micellar DPC; one-site model; mean of three experiments ± standard error mean
Experimental: as §3
In order to mimic the hydrophobic environment of the bacterial membrane that antimicrobial peptides commonly target, the interactions of these cyclopeptides with calcium(II) were also conducted in the presence of micellar dodecylphosphocholine (DPC). […] However, their association is compensated by an increase in entropy (ΔS values range from ca. 42.7 to 66.5 JK^−1 mol^−1). This entropy/enthalpy compensation could be attributed to a greater degree of dehydration of the hydration spheres around the cyclopeptide molecules and calcium ions following complex formation in the hydrophobic micellar DPC environment. However, there is no significant trend in the enthalpy or entropy changes following calcium(II) binding in the presence of micellar DPC.

[5] = Mueller-Hinton microbroth dilution, ca. 1 × 10^5 cfu/mL, 18 hrs at 35°C, visual turbidity, range tested 256 to 2 μg/mL, triplicate, at least three independent experiments

Compound	E. coli ATCC 25922 MIC [1, 5] [µg/mL]	S. aureus ATCC 10566 MIC [2, 5] [µg/mL]	Binding affinity for Ca^2+ K b [3]	E. coli ATCC 25922 MIC ([1]; ATCC 25922, 18 h) [µg/mL]	S. aureus ATCC 10566 MIC ([2]; ATCC 10566, 18 h) [µg/mL]	Binding affinity for Ca^2+ K b [4]
CC(C)C[C@@H]1NC(=O)[C@@H](CCCCN)NC(=O)[C@H](CCCCN)NC(=O)[C@@H](CCCCN)NC(=O)[C@H](CCCCN)NC(=O)[C@@H](CC(C)C)NC(=O)[C@H](CC(C)C)NC(=O)[C@@H](CC(C)C)NC1=O [COP 1] (cyclo(K[dK]K[dK]L[dL]L[dL]))	16	8	(3.4 ± 0.6) × 10^3 M^−1			
CC(C)C[C@@H]1NC(=O)[C@@H](CC(C)C)NC(=O)[C@H](CC(C)C)NC(=O)[C@@H](CCCCN)NC(=O)[C@H](CCCCN)NC(=O)[C@@H](CCCCN)NC(=O)[C@H](CCCCN)NC(=O)[C@@H](Cc2c[nH]c3ccccc23)NC1=O [COP 2] (cyclo(K[dK]K[dK]L[dL]L[dW]))	16	8	(4.8 ± 1.3) × 10^3 M^−1			
CC(C)C[C@@H]1NC(=O)[C@@H](CC(C)C)NC(=O)[C@H](CCCCN)NC(=O)[C@@H](CCCCN)NC(=O)[C@H](CCCCN)NC(=O)[C@@H](CCCCN)NC(=O)[C@H](CS)NC(=O)[C@@H](CC(C)C)NC1=O [COP 3] (cyclo(C[dK]K[dK]K[dL]L[dL]))			(7.9 ± 2.8) × 10^3 M^−1	16	16	(3.3 ± 0.3) × 10^3 M^−1
CC(C)C[C@@H]1NC(=O)[C@@H](CC(C)C)NC(=O)[C@H](CCC(=O)O)NC(=O)[C@@H](CCCCN)NC(=O)[C@H](CCCCN)NC(=O)[C@@H](CCCCN)NC(=O)[C@H](CCCCN)NC(=O)[C@@H](CC(C)C)NC1=O [COP 4] (cyclo(E[dL]L[dL]K[dK]K[dK]))	16	32	(3.1 ± 0.7) × 10^3 M^−1			(4.7 ± 1.1) × 10^3 M^−1
CC(C)C[C@@H]1NC(=O)[C@@H](CC(C)C)NC(=O)[C@H](CCC(=O)O)NC(=O)[C@@H](CCCCN)NC(=O)[C@H](CCCCN)NC(=O)[C@@H](CCCCN)NC(=O)[C@H](Cc2c[nH]cn2)NC(=O)[C@@H](CC(C)C)NC1=O [COP 5] (cyclo(E[dL]L[dL]H[dK]K[dK]))			(5.3 ± 1.4) × 10^3 M^−1	32	128	(5.4 ± 0.6) × 10^3 M^−1
CC(C)C[C@@H]1NC(=O)[C@@H](CC(C)C)NC(=O)[C@H](CCC(=O)O)NC(=O)[C@@H](CCCCN)NC(=O)[C@H](CCCCN)NC(=O)[C@@H](CCCCN)NC(=O)[C@H](CS)NC(=O)[C@@H](CC(C)C)NC1=O [COP 6] (cyclo(C[dK]K[dK]E[dL]L[dL]))			(6.4 ± 2.8) × 10^3 M^−1	128	128	(4.9 ± 0.7) × 10^3 M^−1
CC(C)C[C@@H]1NC(=O)[C@@H](CC(C)C)NC(=O)[C@H](CC(C)C)NC(=O)[C@@H](CC(C)C)NC(=O)[C@H](CCC(=O)O)NC(=O)[C@@H](CCCCN)NC(=O)[C@H](CCCCN)NC(=O)[C@@H](CCCCN)NC1=O [COP 7] (cyclo(E[dL]L[dL]L[dK]K[dK]))			(8.0 ± 1.2) × 10^3 M^−1	>256	>256	(4.7 ± 1.0) × 10^3 M^−1
CC(C)C[C@@H]1NC(=O)[C@@H](CC(C)C)NC(=O)[C@H](CCC(=O)O)NC(=O)[C@@H](CCCCN)NC(=O)[C@H](Cc2c[nH]cn2)NC(=O)[C@@H](CCCCN)NC(=O)[C@H](Cc2c[nH]cn2)NC(=O)[C@@H](CC(C)C)NC1=O [COP 8] (cyclo(E[dL]L[dL]H[dK]H[dK]))			(4.9 ± 0.3) × 10^3 M^−1	>256	>256	(4.4 ± 0.02) × 10^3 M^−1
CC(C)C[C@@H]1NC(=O)[C@@H](CC(C)C)NC(=O)[C@H](CCC(=O)O)NC(=O)[C@@H](CCCCN)NC(=O)[C@H](CCCCN)NC(=O)[C@@H](CCCCN)NC(=O)[C@H](CCC(=O)O)NC(=O)[C@@H](CC(C)C)NC1=O [COP 9] (cyclo(E[dK]K[dK]E[dL]L[dL]))			(5.4 ± 1.2) × 10^3 M^−1	>256	>256	(4.1 ± 0.03) × 10^3 M^−1
